{
  "source": "ChEMBL document CHEMBL1140311",
  "about": "“Design and synthesis of new nonsteroidal glucocorticoid modulators through application of an \"agreement docking\" method” (J Med Chem, 2005)",
  "key": {"[1]": {"test": "Binding affinity for glucocorticoid receptor"}, "Glucocorticoid receptor [2]": {"target": "T1, Glucocorticoid receptor (Homo sapiens, UniProt P04150)", "T1 sequence (P04150 whole entry)": "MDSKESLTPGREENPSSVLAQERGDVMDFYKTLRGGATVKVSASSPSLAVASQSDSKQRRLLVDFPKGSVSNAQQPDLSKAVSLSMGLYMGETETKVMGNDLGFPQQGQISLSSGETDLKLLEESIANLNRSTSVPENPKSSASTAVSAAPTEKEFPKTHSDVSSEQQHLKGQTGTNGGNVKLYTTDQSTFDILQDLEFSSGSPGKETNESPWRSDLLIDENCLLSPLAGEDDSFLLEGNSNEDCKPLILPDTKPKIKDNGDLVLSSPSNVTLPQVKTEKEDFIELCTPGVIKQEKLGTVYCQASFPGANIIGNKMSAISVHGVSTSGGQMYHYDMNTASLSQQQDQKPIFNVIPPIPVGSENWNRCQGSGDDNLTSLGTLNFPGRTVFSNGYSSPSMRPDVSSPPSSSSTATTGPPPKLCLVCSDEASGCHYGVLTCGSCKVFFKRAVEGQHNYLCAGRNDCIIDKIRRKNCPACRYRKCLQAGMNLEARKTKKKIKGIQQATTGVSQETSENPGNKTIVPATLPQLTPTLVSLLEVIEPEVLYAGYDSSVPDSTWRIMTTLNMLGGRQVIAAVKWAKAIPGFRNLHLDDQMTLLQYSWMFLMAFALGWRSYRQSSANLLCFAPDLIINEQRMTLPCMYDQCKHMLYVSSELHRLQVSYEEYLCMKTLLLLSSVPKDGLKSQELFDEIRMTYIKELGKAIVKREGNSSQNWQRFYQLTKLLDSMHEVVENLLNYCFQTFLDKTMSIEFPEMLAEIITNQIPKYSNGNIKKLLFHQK", "test": "Antagonist activity for Glucocorticoid receptor in MMTV transactivation assay in human A549 lung epithelial cells at 10 uM", "assay_type": "functional, cell-based"}, "[3]": {"target": "T2, Glucocorticoid receptor (Homo sapiens) (UniProt P04150)", "T2 sequence (whole entry)": "T1 sequence (P04150 whole entry)", "test": "Glucocorticoid receptor mediated transrepression of NFkB reporter gene in human A549 lung epithelial cells at 10 uM", "assay_type": "functional, cell-based"}, "Glucocorticoid receptor [4]": {"target": "T1, Glucocorticoid receptor", "test": "Glucocorticoid receptor mediated transrepression of NFkB reporter gene in human A549 lung epithelial cells", "assay_type": "functional, cell-based"}},
  "data": [
    {"smiles": "Cc1noc(=O)c2ccc(NC(=O)C(O)(CC3CCc4ccccc43)C(F)(F)F)cc12", "note": "(configuration not stated)", "values": [
      {"measurement": "Log IC50", "setting": "[1]", "result": -7.81},
      {"measurement": "IC50", "setting": "Glucocorticoid receptor [2]", "result": 4790, "unit": "nM"},
      {"measurement": "Max inhibition", "setting": "[3]", "result": 73, "unit": "%"}
    ]},
    {"smiles": "Cc1noc(=O)c2ccc(NC(=O)C(O)(CC3CCCCc4ccccc43)C(F)(F)F)cc12", "note": "(stereo in doubt; 15a (D1E2)) [listing 1 of 2 here]", "values": [
      {"measurement": "Max inhibition", "setting": "[3]", "result": 60, "unit": "%"}
    ]},
    {"smiles": "Cc1noc(=O)c2ccc(NC(=O)C(O)(CC3CCCc4ccccc43)C(F)(F)F)cc12", "note": "(stereo in doubt; 9e (D1E1)) [listing 1 of 2 here]", "values": [
      {"measurement": "Log IC50", "setting": "[1]", "result": -8.08},
      {"measurement": "IC50", "setting": "Glucocorticoid receptor [2]", "result": 562, "unit": "nM"}
    ]},
    {"smiles": "Cc1noc(=O)c2ccc(NC(=O)C(O)(CC3CCCCc4ccccc43)C(F)(F)F)cc12", "note": "(stereo in doubt; 15b (D2E1)) [listing 1 of 2 here]", "values": [
      {"measurement": "Max inhibition", "setting": "[3]", "result": 24, "unit": "%"}
    ]},
    {"smiles": "Cc1noc(=O)c2ccc(NC(=O)C(O)(CC3CCCc4ccccc43)C(F)(F)F)cc12", "note": "(stereo in doubt; 9d (D2E2)) [listing 1 of 2 here]", "values": [
      {"measurement": "Log IC50", "setting": "[1]", "result": -7.15},
      {"measurement": "IC50", "setting": "Glucocorticoid receptor [2]", "result": 3890, "unit": "nM"}
    ]},
    {"smiles": "Cc1noc(=O)c2ccc(NC(=O)C(O)(CC3CCCc4ccccc43)C(F)(F)F)cc12", "note": "(stereo in doubt; 9d (D2E2)) [listing 2 of 2 here]", "values": [
      {"measurement": "Max inhibition", "setting": "[3]", "result": 23, "unit": "%"}
    ]},
    {"smiles": "C[C@@H]1C[C@H]2[C@@H]3CCC4=CC(=O)C=C[C@]4(C)[C@@]3(F)[C@@H](O)C[C@]2(C)[C@@]1(O)C(=O)CO", "note": "[DEXAMETHASONE]", "values": [
      {"measurement": "Log IC50", "setting": "[1]", "result": -8.1}
    ]},
    {"smiles": "Cc1noc(=O)c2ccc(NC(=O)C(O)(CC3CCCCc4ccccc43)C(F)(F)F)cc12", "note": "(stereo in doubt; 15a (D1E2)) [listing 2 of 2 here]", "values": [
      {"measurement": "Log IC50", "setting": "[1]", "result": -8.57},
      {"measurement": "IC50", "setting": "Glucocorticoid receptor [4]", "result": 145, "unit": "nM"},
      {"measurement": "IC50", "setting": "Glucocorticoid receptor [2]", "result": 708, "unit": "nM"}
    ]},
    {"smiles": "Cc1noc(=O)c2ccc(NC(=O)C(O)(CC3CCCc4ccccc43)C(F)(F)F)cc12", "note": "(stereo in doubt; 9e (D1E1)) [listing 2 of 2 here]", "values": [
      {"measurement": "Max inhibition", "setting": "[3]", "result": 51, "unit": "%"}
    ]},
    {"smiles": "Cc1noc(=O)c2ccc(NC(=O)C(O)(CC3CCCCc4ccccc43)C(F)(F)F)cc12", "note": "(stereo in doubt; 15b (D2E1)) [listing 2 of 2 here]", "values": [
      {"measurement": "Log IC50", "setting": "[1]", "result": -7.75},
      {"measurement": "IC50", "setting": "Glucocorticoid receptor [2]", "result": 1000, "unit": "nM"}
    ]}
  ]
}
